Laboratory results from patent US10590113B2, “6-hydroxy-4-oxo-1,4-dihydropyrimidine-5-carboxamides as APJ agonists” (priority 2016, dated 2020).

target: T1, human APJ receptor (Homo sapiens, UniProt P35414); test: Intracellular cAMP Accumulation Assay (APJ hcAMP, HTRF); type: cell-based; details: human APJ, cAMP accumulation; potency range class; read-out: hAPJ cAMP EC50 Potency range
T1 construct: expressed in transfected cells; host or cells: HEK293
T1 sequence (P35414 1-380): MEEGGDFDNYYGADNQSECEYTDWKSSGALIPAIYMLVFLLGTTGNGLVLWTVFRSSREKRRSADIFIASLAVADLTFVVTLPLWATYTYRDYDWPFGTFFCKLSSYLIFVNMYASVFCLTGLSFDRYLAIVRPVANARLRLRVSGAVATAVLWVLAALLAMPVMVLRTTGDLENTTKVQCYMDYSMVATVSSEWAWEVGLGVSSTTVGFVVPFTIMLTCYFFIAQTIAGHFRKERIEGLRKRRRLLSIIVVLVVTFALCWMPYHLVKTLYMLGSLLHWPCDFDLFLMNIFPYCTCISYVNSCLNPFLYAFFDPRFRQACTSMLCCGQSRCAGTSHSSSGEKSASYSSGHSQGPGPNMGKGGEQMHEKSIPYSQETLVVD
In short: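 Stably transfected HEK293 cells (5,000/well) incubated 30 min at room temperature with serially diluted compound, […] and 2 μM forskolin. cAMP measured by HTRF after 60 min with detection reagents, quantified against a cAMP standard curve; EC50 from variable-slope sigmoidal fit of inhibition of forskolin-stimulated cAMP.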

EC50, 0.01 to 10 nM:
COc1cccc(-c2nc(=O)c(C(=O)N3CCC(c4ncc(Cl)cc4F)C3)c(O)n2-c2c(OC)cccc2OC)c1 (single isomer, unassigned) [Example 261, 5-[3-(5-chloro-3-fluoropyridin-2-yl)pyrrolidine-1-carbonyl]-1-(2,6-dimethoxyphenyl)-6-hydroxy-2-(3-methoxyphenyl)-1,4-dihydropyrimidin-4-one]
COc1cccc(OC)c1-n1c(-c2cc(C)ccn2)nc(=O)c(C(=O)N2CCC(c3ccc(F)cc3F)C2)c1O (single isomer, unassigned) [Example 262, 5-[3-(2,4-difluorophenyl)pyrrolidine-1-carbonyl]-1-(2,6-dimethoxyphenyl)-6-hydroxy-2-(4-methylpyridin-2-yl)-1,4-dihydropyrimidin-4-one]
COc1cccc(OC)c1-n1c(-c2cccc(C)c2)nc(=O)c(C(=O)N2CCC(c3ncc(Cl)cc3F)C2)c1O (single isomer, unassigned) [Example 263, 5-[3-(5-chloro-3-fluoropyridin-2-yl)pyrrolidine-1-carbonyl]-1-(2,6-dimethoxyphenyl)-6-hydroxy-2-(3-methylphenyl)-1,4-dihydropyrimidin-4-one]
COc1cccc(OC)c1-n1c(-c2cccc(Cl)c2)nc(=O)c(C(=O)N2CCC(c3ncc(Cl)cc3F)C2)c1O (single isomer, unassigned) [Example 264, 5-[3-(5-chloro-3-fluoropyridin-2-yl)pyrrolidine-1-carbonyl]-2-(3-chlorophenyl)-1-(2,6-dimethoxyphenyl)-6-hydroxy-1,4-dihydropyrimidin-4-one]
COc1cccc(OC)c1-n1c(-c2ccc(F)cc2)nc(=O)c(C(=O)N2CCC(c3ncc(Cl)cc3F)C2)c1O (single isomer, unassigned) [Example 265, 5-[3-(5-chloro-3-fluoropyridin-2-yl)pyrrolidine-1-carbonyl]-1-(2,6-dimethoxyphenyl)-2-(4-fluorophenyl)-6-hydroxy-1,4-dihydropyrimidin-4-one]
CCn1ccc(-c2nc(=O)c(C(=O)N3CCC(c4ccc(F)cc4F)C3)c(O)n2-c2c(OC)cccc2OC)n1 (single isomer, unassigned) [Example 269, 5-[3-(2,4-difluorophenyl)pyrrolidine-1-carbonyl]-1-(2,6-dimethoxyphenyl)-2-(1-ethyl-1H-pyrazol-3-yl)-6-hydroxy-1,4-dihydropyrimidin-4-one]
COc1cccc(OC)c1-n1c(-c2csc(C)n2)nc(=O)c(C(=O)N2CCC(c3c(F)cccc3F)C2)c1O (single isomer, unassigned) [Example 270, 5-[3-(2,6-difluorophenyl)pyrrolidine-1-carbonyl]-1-(2,6-dimethoxyphenyl)-6-hydroxy-2-(2-methyl-1,3-thiazol-4-yl)-1,4-dihydropyrimidin-4-one]
COc1cccc(OC)c1-n1c(-c2nc(C)cs2)nc(=O)c(C(=O)N2CCC(c3c(F)cccc3F)C2)c1O (single isomer, unassigned) [Example 271, 5-[3-(2,6-difluorophenyl)pyrrolidine-1-carbonyl]-1-(2,6-dimethoxyphenyl)-6-hydroxy-2-(4-methyl-1,3-thiazol-2-yl)-1,4-dihydropyrimidin-4-one]
CCc1cccc(CC)c1-n1c(-c2ccn(C)n2)nc(=O)c(C(=O)N2CCC(c3ccc(F)cc3)C2)c1O (single isomer, unassigned) [Example 272, 1-(2,6-diethylphenyl)-5-[3-(4-fluorophenyl)pyrrolidine-1-carbonyl]-6-hydroxy-2-(1-methyl-1H-pyrazol-3-yl)-1,4-dihydropyrimidin-4-one]
